Test results as given in patent publication US11236080B2, “Protein kinase inhibitors” (Princeton Drug Discovery Inc, priority 2016, dated 2022).

Experiments:
[1] = Lung tissue and plasma concentration ratios; assay type: in vivo, CD-1 mouse; settings: mice, single oral dose 5 mg/kg, dosed together with dasatinib, all time points
Method: CD-1 mouse (approximate weight 30 g, N=3) were dosed by oral gavage at 10 mL/kg. Blood samples were collected into tubes containing EDTA as the anticoagulant at 1, 2, 4, 10 h post-dosing for Compound X, and predose, 1, 2, 3, 8, 10 and 24 h post-dosing for Compound XI. The plasma samples were prepared by centrifugation. Lung samples were also collected at each of the above time points. The lung samples were homogenated in 4× distilled water (v/w). The plasma samples and the homogenated lung tissue samples were mixed with 3× volumes of acetonitrile containing 100 nM reserpine as the internal standard, and centrifuged at 4000 RPM for 15 min. The supernatants were injected for LC/MS analysis which were carried out on a AB Sciex 4000 Q Trap LC/MS/MS system coupled with Shimadzu Prominence UFLCXR 20 series (including a CBM-20A controller, two LC-20ADXR solvent delivery units, SIL-20AC HT autosampler, CTO-20A column oven, and a SPD-20A UV detector). The samples were separated on a Phenomenex Columbus column (C18, 4 μm, 50×2 mm) eluted with two solvent systems: 2 mM ammonium acetate in water containing 0.1% formic acid (A) and methanol (B) at a linear gradient starting at 25%. Electrospray ionization in positive mode was used to acquire LC/MS/MS data.

[2] = Metabolic stability in human liver microsomes; assay type: in vitro ADME; settings: human liver microsomes 0.5 mg/mL, NADPH and UDPGA, 37° C., read-out: In vitro t1/2
Method: FIG. 1. Metabolic stability of compounds in human liver microsomal incubations. […] Concentrations at specified times were determined by LC-MS/MS.
The incubation reactions at various time points were quenched by adding 2× volumes of acetonitrile containing 100 nM reserpine. The quenched incubation samples were centrifuged at 4000 RPM for 10 min, and the supernatants injected for LC/MS/MS analysis. LC/MS/MS analysis was carried out on a AB Sciex 4000 Q Trap LC/MS/MS system coupled with Shimadzu Prominence UFLCXR 20 series (including a CBM-20A controller, two LC-20ADXR solvent delivery units, SIL-20AC HT autosampler, CTO-20A column oven, and a SPD-20A UV detector).

| Structure (SMILES) | ratio of lung tissue concentration to plasma concentration, compared to dasatinib [1] | half-life at 1 μM [2] |
| --- | --- | --- |
| Cc1nc(Nc2ncc(C(=O)Nc3c(C)cccc3Cl)s2)cc(N2CC[C@@H](O)C2)n1 [Compound XI, N-(2-chloro-6-methylphenyl)-2-[[2-methyl-6-((R)-3-hydroxypyrrolidin-1-yl)pyrimidin-4-yl]amino]thiazole-5-carboxamide] | significantly lower ratios | – |
| Cc1nc(Nc2ncc(C(=O)Nc3c(C)cccc3Cl)s2)cc(N2CC[C@H](O)C2)n1 [Compound X, N-(2-chloro-6-methylphenyl)-2-[[2-methyl-6-((S)-3-hydroxypyrrolidin-1-yl)pyrimidin-4-yl]amino]thiazole-5-carboxamide] | significantly lower ratios | – |
| [2H]c1cc(C)c(NC(=O)c2cnc(Nc3cc(N4CCCCC4)nc(C)n3)s2)c(Cl)c1 [Compound I, N-(2-chloro-4-deuterio-6-methyl-phenyl)-2-[[2-methyl-6-(1-piperidyl)pyrimidin-4-yl]amino]thiazole-5-carboxamide] | – | 4.68 h |
